{"source": "patent US20240360194A1", "about": "“New Peptides as Potent and Selective GIP Receptor Agonists” (Sanofi, priority 2021, published 2024)", "key": {"[1]": {"molecular_target": "human GLP-1 receptor (hGLP-1R) (Homo sapiens, UniProt P43220)", "sequence (P43220 24-463)": "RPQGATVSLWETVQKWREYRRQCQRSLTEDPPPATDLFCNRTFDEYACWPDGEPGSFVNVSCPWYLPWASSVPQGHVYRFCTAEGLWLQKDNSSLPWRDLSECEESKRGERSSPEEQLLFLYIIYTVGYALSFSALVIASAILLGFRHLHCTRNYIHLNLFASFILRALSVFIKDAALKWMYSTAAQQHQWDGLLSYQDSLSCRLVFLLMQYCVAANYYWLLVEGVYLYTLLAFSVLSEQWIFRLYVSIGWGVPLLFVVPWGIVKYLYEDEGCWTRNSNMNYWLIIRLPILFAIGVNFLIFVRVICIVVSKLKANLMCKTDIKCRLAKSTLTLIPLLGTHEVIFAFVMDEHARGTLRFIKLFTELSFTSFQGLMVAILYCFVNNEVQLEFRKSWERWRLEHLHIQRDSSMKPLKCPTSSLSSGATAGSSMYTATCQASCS", "assay": "In vitro cellular cAMP assay for GLP-1 receptor efficacy (HEK-293 cell line over-expressing receptor)", "type": "cell-based", "details": "HEK-293, 0.1% BSA"}, "[2]": {"molecular_target": "T1, human GIP receptor (Homo sapiens, UniProt P48546)", "T1 construct": "human adipocytes endogenously expressing the human GIP receptor; host or cells: human preadipocytes (Lonza) differentiated to adipocytes", "T1 sequence (P48546 22-466)": "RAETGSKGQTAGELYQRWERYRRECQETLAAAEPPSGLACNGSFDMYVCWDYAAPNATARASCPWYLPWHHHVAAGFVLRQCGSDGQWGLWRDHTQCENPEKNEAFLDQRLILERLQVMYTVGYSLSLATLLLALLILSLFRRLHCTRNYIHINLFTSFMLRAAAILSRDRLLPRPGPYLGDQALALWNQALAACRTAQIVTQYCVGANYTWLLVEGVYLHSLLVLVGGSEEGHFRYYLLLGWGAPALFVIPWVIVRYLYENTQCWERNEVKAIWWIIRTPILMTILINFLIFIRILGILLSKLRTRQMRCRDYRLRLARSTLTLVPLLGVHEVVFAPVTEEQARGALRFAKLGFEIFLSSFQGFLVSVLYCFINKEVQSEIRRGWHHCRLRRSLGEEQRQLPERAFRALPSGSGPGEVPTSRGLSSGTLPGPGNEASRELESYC", "assay": "In vitro cellular cAMP assay for GIP receptor efficacy (human adipocytes)", "type": "cell-based", "details": "for EC50: read-out: hGIPR EC50; for Emax: read-out: hGIPR Emax", "procedure": "For this, one vial of human preadipocytes (˜10^6 cells; Lonza) was thawed in a T-75 cell culture dish. The cells were cultivated at 37° C., 5% CO2, 95% humidity in Preadipocyte Growth Medium with Supplement Mix from Promo Cell.\nAfter 3 days, the cells were washed with PBS and 1.5 ml Trypsin, incubated for 4 min, then resuspended in medium, centrifugated for 10 min @ 300 rcf RT, resuspended again and distributed to four T-75 cell culture dishes. Again, the cells were cultivated at 37° C., 5% CO2, 95% humidity.\nAfter 5 days, the cells were washed with PBS and 1.5 ml Trypsin, incubated for 4 min, then resuspended in medium, centrifugated for 10 min @ 300 rcf RT, resuspended again and sawn in T-75 dishes (2.5×10^6 cells per dish) in 15 ml Differentiation medium each.\nThe differentiation medium had the following composition: DMEM (Gibco), Ham's F10 (Gibco), 15 mM HEPES (Gibco), 3% FCS (PAA), 33 μM biotin (Sigma-Aldrich), 17 μM Pantothenate (Sigma-Aldrich), 0.1 μM human insulin (Sigma-Aldrich), 1 μM dexamethason (Sigma-Aldrich), 0.1 μM PPARgamma agonist (#R2408, Sigma-Aldrich), 0.6×Anti-Anti (#15240, ThermoFisher), 200 μM IBMX (AppliChem), and 0.01 μM L-thyroxine (Sigma-Aldrich).\nAfter 6 days of differentiation, 5000 cells per well were dispensed on a 96-well plate (#CLS3694 from Corning®, Sigma-Aldrich). For measurement of cAMP generation, 25 μL of test compound was added to each well of the 96-well plate, followed by incubation for 30 min at room temperature.\nThe cAMP generated following test compound stimulation was determined using a kit from Cisbio Corp. based on HTRF (Homogenous Time Resolved Fluorescence). The cAMP assay was performed according to manufacturer's instructions (Cisbio).\nThe cAMP content of cells was determined using a kit from Cisbio Corp. based on HTRF (Homogenous Time Resolved Fluorescence).\nAfter addition of HTRF reagents diluted in lysis buffer (kit components), the plates were incubated for 1 h, followed by measurement of the fluorescence ratio at 665/620 nm."}, "[3]": {"assay": "Solubility assessment (UHPLC-UV of supernatant, target 10 mg/ml)", "type": "physicochemical", "procedure": "Prior to the solubility measurement of a peptide batch, its purity was determined through UHPLC/MS.\nTherefore, solutions from solid samples were prepared in a buffer system with a concentration of 10 mg/ml compound based on the previously determined % purity: • Solubility buffer system A) 100 mM phosphate buffer pH 7.4 • Solubility buffer system B) 8 mM phosphate buffer pH 7.4, 14 mg/ml propylene glycol, 5.5 mg/ml phenol • Solubility buffer system C) 100 mM phosphate buffer pH 7.4, 2.7 mg/ml m-cresol\nUHPLC-UV was performed after 1 h of gentle agitation and storage at 5° C. overnight (24 h) from the supernatant, which was obtained after 15 min of centrifugation at 2500 RCF (relative centrifugal acceleration).\nThe different UV extinction coefficients of sample and reference peptide were calculated based on the different amino acid sequences and considered in the concentration calculation.\nThe analytical method used was Analytical UHPLC Method A.\nPeptide samples were prepared in solubility buffer system A or C and solubility was assessed as described in Methods."}, "[4]": {"molecular_target": "T2, human GIP receptor (hGIPR) (Homo sapiens, UniProt P48546)", "T2 sequence (P48546 22-466)": "T1 sequence (P48546 22-466)", "assay": "Binding assay, displacement of [125I]GIP from HEK-293 membranes over-expressing GIPR (SPA)", "details": "[125I]GIP displacement", "procedure": "(1) Preparation of Membranes from HEK-293 Cells Over-Expressing GIPR or GLP-1R\nHEK-293 cells recombinantly over-expressing GIPR or GLP-1R were grown to 50% confluency, washed with warm 1×PBS (Gibco) and detached in HEPES/EDTA-buffer (100 mM HEPES pH 7.5, 5 mM EDTA). Cells were harvested by centrifugation at 4° C. and 3000×g and the pellets were stored at −80° C. until further processing.\nAfter thawing on ice, pellets were resuspended in HEPES/EDTA-buffer and homogenized on ice for 1 min using Ultra-Turray T25. After subsequent sonification the cell debris was removed by centrifugation at 1000×g and 4° C. Supernatants were then ultra-centrifuged at 100000×g and 4° C. under vacuum for 30 min. Pellets were resuspended in HEPES/EDTA/NaCl-buffer (20 mM HEPES, 1 mM EDTA, 150 mM NaCl; add 1 Complete Mini Protease inhibitor cocktail to 10 ml buffer) and protein content was determined via BCA-Protein assay.\n(2) Measurement of Binding Activity of Test Compounds to Human GIPR or GLP-1R"}}, "note": "Numbered stars: 1 amine (or outer) side, 2 acyl side, 3 side chain; on linkers, the order of the positions; unused ones are H or OH. Square brackets hold non-standard residues; d marks the D form. Side chains are listed from the residue outwards. Peptide text beside a SMILES is read from it. * marks the point of attachment. C18 diacid = O=C(O)CCCCCCCCCCCCCCCCC(=O)*; γGlu = O=C(O)[C@H](CCC(=O)[*:2])N[*:1]; dIva = CC[C@@](C)(N)C(=O)O; AEEA = NCCOCCOCC(=O)O; Aib = CC(C)(N)C(=O)O", "data": [{"smiles": "CC[C@H](C)[C@H](NC(=O)[C@H](Cc1ccccc1)NC(=O)[C@H](CCC(=O)O)NC(=O)[C@H](CCC(=O)O)NC(=O)[C@H](CCC(N)=O)NC(=O)[C@H](Cc1c[nH]cn1)NC(=O)[C@@H](NC(=O)[C@H](CCCNC(=N)N)NC(=O)[C@H](CC(=O)O)NC(=O)[C@H](CCCCNC(=O)COCCOCCNC(=O)COCCOCCNC(=O)CC[C@H](NC(=O)CCCCCCCCCCCCCCCCC(=O)O)C(=O)O)NC(=O)C(C)(C)NC(=O)[C@@H](NC(=O)[C@H](CO)NC(=O)[C@H](CC(C)C)NC(=O)[C@H](CC(=O)O)NC(=O)[C@H](CO)NC(=O)[C@@H](NC(=O)[C@H](Cc1ccccc1)NC(=O)[C@@H](NC(=O)CNC(=O)[C@H](CCC(=O)O)NC(=O)C(C)(C)NC(=O)[C@@H](N)Cc1ccc(O)cc1)[C@@H](C)O)[C@@H](C)CC)[C@@H](C)CC)[C@@H](C)CC)C(=O)N[C@@H](CCC(=O)O)C(=O)N[C@@H](Cc1c[nH]c2ccccc12)C(=O)N[C@@H](CC(C)C)C(=O)N[C@@H](CC(C)C)C(=O)N[C@@H](C)C(=O)N[C@@H](CCC(N)=O)C(=O)N[C@@H](CCC(=O)O)C(=O)N1CCC[C@H]1C(=O)N[C@@H](CO)C(=O)N[C@@H](CO)C(=O)NCC(=O)N[C@@H](C)C(=O)N1CCC[C@H]1C(=O)N1CCC[C@H]1C(=O)N1CCC[C@H]1C(=O)N[C@@H](CO)C(N)=O", "note": "[SEQ ID NO: 27, H2N-Y-Aib-E-G-T-F-I-S-D-L-S-I-Aib-K[{AEEA}2-gGlu-C18OH]-DRIHQEEFIEWLLAQEPSSGAPPPS-NH2] (H-Y[Aib]EGTFISDLSI[Aib]K([AEEA-AEEA-γGlu-C18 diacid])DRIHQEEFIEWLLAQEPSSGAPPPS-NH2)", "values": [{"measurement": "EC50", "setting": "[1]", "value": "> 10", "unit": "nM"}, {"measurement": "EC50", "setting": "[2]", "value": 0.6, "unit": "nM"}, {"measurement": "Emax", "setting": "[2]", "value": 116, "unit": "%"}, {"measurement": "Soluble amount", "setting": "[3]; 24 h, pH 7.4", "value": ">8.4", "unit": "mg/mL"}, {"measurement": "solubility at 24 h", "setting": "[3]; pH 7.4, Soluble amount", "value": "> 9000", "unit": "µg/mL"}, {"measurement": "IC50", "setting": "[4]", "value": 0.7, "unit": "nM"}]}, {"smiles": "CC[C@H](C)[C@H](NC(=O)[C@H](CCCNC(=N)N)NC(=O)[C@H](CC(=O)O)NC(=O)[C@H](CCCCNC(=O)COCCOCCNC(=O)COCCOCCNC(=O)CC[C@H](NC(=O)CCCCCCCCCCCCCCCCC(=O)O)C(=O)O)NC(=O)C(C)(C)NC(=O)[C@@H](NC(=O)[C@H](CO)NC(=O)[C@H](CC(C)C)NC(=O)[C@H](CC(=O)O)NC(=O)[C@H](CO)NC(=O)[C@@H](NC(=O)[C@H](Cc1ccccc1)NC(=O)[C@@H](NC(=O)CNC(=O)[C@H](CCC(=O)O)NC(=O)C(C)(C)NC(=O)[C@@H](N)Cc1ccc(O)cc1)[C@@H](C)O)[C@@H](C)CC)[C@@H](C)CC)C(=O)N[C@@H](Cc1c[nH]cn1)C(=O)N[C@@H](CCC(N)=O)C(=O)NC(C)(C)C(=O)N[C@@H](CCC(=O)O)C(=O)N[C@@H](Cc1ccccc1)C(=O)N[C@H](C(=O)N[C@@H](CCC(=O)O)C(=O)N[C@@H](Cc1c[nH]c2ccccc12)C(=O)N[C@@H](CC(C)C)C(=O)N[C@@H](CC(C)C)C(=O)N[C@@H](C)C(=O)N[C@@H](CCC(N)=O)C(=O)N[C@@H](CCCNC(=N)N)C(=O)N1CCC[C@H]1C(=O)N[C@@H](CO)C(=O)N[C@@H](CO)C(=O)NCC(=O)N[C@@H](C)C(=O)N1CCC[C@H]1C(=O)N1CCC[C@H]1C(=O)N1CCC[C@H]1C(=O)N[C@@H](CO)C(N)=O)[C@@H](C)CC", "note": "[SEQ ID NO: 30, H2N-Y-Aib-E-G-T-F-I-S-D-L-S-I-Aib-K[{AEEA}2-gGlu-C18OH]-D-R-I-H-Q-Aib-E-F-I-E-W-L-L-A-Q-R-P-S-S-G-A-P-P-P-S-NH2] (H-Y[Aib]EGTFISDLSI[Aib]K([AEEA-AEEA-γGlu-C18 diacid])DRIHQ[Aib]EFIEWLLAQRPSSGAPPPS-NH2)", "values": [{"measurement": "EC50", "setting": "[1]", "value": "> 10", "unit": "nM"}, {"measurement": "EC50", "setting": "[2]", "value": 0.5, "unit": "nM"}, {"measurement": "Emax", "setting": "[2]", "value": 138, "unit": "%"}, {"measurement": "solubility at 24 h", "setting": "[3]; pH 7.4, Soluble amount", "value": 8400, "unit": "µg/mL"}, {"measurement": "IC50", "setting": "[4]", "value": 0.1, "unit": "nM"}]}, {"smiles": "CC[C@H](C)[C@H](NC(=O)[C@H](CCCNC(=N)N)NC(=O)[C@H](CC(=O)O)NC(=O)[C@H](CCCCNC(=O)COCCOCCNC(=O)COCCOCCNC(=O)CC[C@H](NC(=O)CCCCCCCCCCCCCCCCC(=O)O)C(=O)O)NC(=O)C(C)(C)NC(=O)[C@@H](NC(=O)[C@H](CO)NC(=O)[C@H](CC(C)C)NC(=O)[C@H](CC(=O)O)NC(=O)[C@H](CO)NC(=O)[C@@H](NC(=O)[C@@](C)(CC)NC(=O)[C@@H](NC(=O)CNC(=O)[C@H](CCC(=O)O)NC(=O)C(C)(C)NC(=O)[C@@H](N)Cc1ccc(O)cc1)[C@@H](C)O)[C@@H](C)CC)[C@@H](C)CC)C(=O)N[C@@H](Cc1c[nH]cn1)C(=O)N[C@@H](CCC(N)=O)C(=O)NC(C)(C)C(=O)N[C@@H](CCC(=O)O)C(=O)N[C@@H](Cc1ccccc1)C(=O)N[C@H](C(=O)N[C@@H](CCC(=O)O)C(=O)N[C@@H](Cc1c[nH]c2ccccc12)C(=O)N[C@@H](CC(C)C)C(=O)N[C@@H](CC(C)C)C(=O)N[C@@H](C)C(=O)N[C@@H](CCC(N)=O)C(=O)NCC(=O)N1CCC[C@H]1C(=O)N[C@@H](CO)C(=O)N[C@@H](CO)C(=O)NCC(=O)N[C@@H](C)C(=O)N1CCC[C@H]1C(=O)N1CCC[C@H]1C(=O)N1CCC[C@H]1C(=O)N[C@@H](CO)C(N)=O)[C@@H](C)CC", "note": "[SEQ ID NO: 23, H2N-Y-Aib-E-G-T-Iva-I-S-D-L-S-I-Aib-K[{AEEA}2-gGlu-C18OH]-D-R-I-H-Q-Aib-E-F-I-E-W-L-L-A-Q-G-P-S-S-G-A-P-P-P-S-NH2] (H-Y[Aib]EGT[dIva]ISDLSI[Aib]K([AEEA-AEEA-γGlu-C18 diacid])DRIHQ[Aib]EFIEWLLAQGPSSGAPPPS-NH2)", "values": [{"measurement": "EC50", "setting": "[1]", "value": "> 10", "unit": "nM"}, {"measurement": "EC50", "setting": "[2]", "value": 0.2, "unit": "nM"}, {"measurement": "Emax", "setting": "[2]", "value": 91, "unit": "%"}, {"measurement": "solubility", "setting": "[3]; pH 7.4, Soluble amount", "value": 6500, "unit": "µg/mL"}, {"measurement": "IC50", "setting": "[4]", "value": 0.2, "unit": "nM"}]}]}
